In patent US6340677B1, “Method of evaluation of skin conditioning-ameliorating agents and method of producing compositions for topical application to skin” (Pola Chemical Industries, Inc., priority 1997, dated 2002):

Test system: mouse photo-aging model
Assay: degree of order of dermis collagen fiber bundle in the mouse photo-aging model (score 0 to 3 from electron microphotographs)
Assay type: in vivo, hairless mice (Skh: HR-1)
Details: 0.05% solution in ethanol
Procedure: Five groups of hairless mice (Skh: HR-1,female, 8-week-old), each group comprising six mice, were prepared. A part of skin and replica of skin surface morphology were excised from each mouse of one group of them when they were 8 weeks old without the following ultraviolet light irradiation, namely in-the state of before the ultraviolet light irradiation. About the remaining four groups, each mouse was irradiated with ultraviolet light B (Toshiba SE lamp, 60 mJ/cm^2) once per day for 5 days a week and fed up. The irradiation of the ultraviolet light to one group among the four groups described-above was stopped after one week of the initiation of the irradiation and at this time a part of skin and replica of skin surface morphology were excised from each mouse of the group. As the same manner, the irradiation of the ultraviolet light to the another group and to the further another group were stopped after two and five weeks of the initiation of the irradiation and then a part of skin and replica of skin surface morphology were excised from each mouse of the groups respectively. The irradiation of the ultraviolet light to the last group was continued to 10 weeks after initiation of the irradiation to prepare the mouse photo-aging models. Thus the total amount of the ultraviolet light irradiated to the mouse photo-aging models was 3J/cm^2. A part of skin and replica of skin surface morphology were also excised from each mouse photo-aging model obtained above. […] Each of the solution was given in an amount of 0.05 ml once a day for consecutive 8 weeks. After completion of the application, a part of the skin was excised from each mouse to take photographs of its surface morphology under scanning electron microscope. […] Evaluation was carried out using the value calculated by dividing the degree of order of the dermis collagen fiber bundle measured by the above method after the application by that before the application.

C[C@@H]1C[C@H]2[C@@H]3CCC4=CC(=O)C=C[C@]4(C)[C@@]3(F)[C@@H](O)C[C@]2(C)[C@@]1(O)C(=O)CO [dexamethasone]
average of the scores of the degree of order of dermis collagen fiber bundle (0.05 ml once a day for consecutive 8 weeks, five mice, score 0 to 3, 2,500 magnification, before application 0.82): 1.71
degree of amelioration of skin conditions (average score of treated group / average score of ethanol-applied group) (8 weeks, 1.71/0.78): 2.28
degree of amelioration of skin conditions (score after application / score before application) (8 weeks, 1.71/0.82): 2.09
